Laboratory results taken from patent publication US8143282B2, “Heterocyclic compounds” (S*BIO Pte Ltd., priority 2005, dated 2012).

Tests used:
Colo205 cells = assay: Cell-based proliferation assay for GI50 (CyQUANT), Colo205; conditions: Homo sapiens, COLO 205, 96 h treatment, read-out: Cellular or Growth Inhibition Activity in Colo205 cells, GI50
Method: Human colon cancer cell lines (Colo205, HCT116), Ovarian cancer cell line (A2780), Hepatoma cell line (HEP3B), Prostate cancer cell line (PC3) were obtained from ATCC or ECACC. Colo205 cells were cultivated in RPMI 1640 containing 2 mM L-Glutamine, 5% FBS, 1.0 mM Na Pyruvate, 1 U/ml of penicillin and 1 μg of streptomycin. HCT116 cells were cultivated in McCoy's containing RPMI 1640 containing 2 mM L-Glutamine, 5% FBS, 1 U/ml of penicillin and 1 μg of streptomycin. A2780 cells were cultivated in RPMI 1640 containing 2 mM L-Glutamine, 5% FBS, 1 U/ml of penicillin and 1 μg of streptomycin. HEP3B cells were cultivated in EMEM containing 2 mM L-glutamine, 5% FBS, 1% non essential amino acid, 1 mM Na Pyruvate, 1 U/ml of penicillin and 1 μg of streptomycin. PC3 cells were cultivated in F12K, 2 mM L-glutamine, 5% FBS, 1 U/ml of penicillin and 1 μg of streptomycin. PC3, Colo205, and HCT116 cells were seeded in 96-wells plate at 1000, 5000 and 6000 cells per well respectively. A2780 and HEP3B cells were seeded in 96-wells plate at 4000 cells per well respectively. The plates were incubated at 37° C., 5% CO2, for 24 h. Cells were treated with compounds at various concentrations for 96 h. Cell growth was then monitored using CyQUANT® cell proliferation assay (Invitrogen Pte Ltd). Dose response curves were plotted to determine GI50 values for the compounds using XL-fit (ID Business Solution, Emeryville, Calif.). GI50 is defined as the concentration of compound required for 50% inhibition of cell growth.

HDAC1 enzyme = biological target: T1, HDAC1 enzyme (Homo sapiens, UniProt Q13547); assay: In vitro HDAC assay for determination of IC50 values (BIOMOL fluorescent-based HDAC activity assay); assay type: biochemical
T1 construct: Amplification of human HDAC1 coding region from this cDNA library was cloned separately into the baculovirus expression pDEST20 vector; made in house; host or cells: SF9 insect cells, pDEST20-HDAC1 baculovirus
Method: Human cDNA library was prepared using cultured SW620 cells. Amplification of human HDAC1 coding region from this cDNA library was cloned separately into the baculovirus expression pDEST20 vector (GATEWAY Cloning Technology, Invitrogen Pte Ltd). The pDEST20-HDAC1 construct was confirmed by DNA sequencing. Recombinant baculovirus was prepared using the Bac-To-Bac method following the manufacturer's instruction (Invitrogen Pte Ltd).
Expression of GST-HDAC1 was done by infecting SF9 cells (Invitrogen Pte Ltd) with pDEST20-HDAC1 baculovirus at MOI=1 for 48 h. Soluble cell lysate was incubated with pre-equilibrated Glutathione Sepharose 4B beads (Amersham) at 4° C. for 2 h. The beads were washed with PBS buffer for 3 times. The GST-HDAC1 protein was eluted by elution buffer containing 50 mM Tris, pH8.0, 150 mM NaCl, 1% Triton X-100 and 10 mM or 20 mM reduced Glutathione. The purified GST-HDAC1 protein was dialyzed with HDAC storage buffer containing 10 mM Tris, pH7.5, 100 mM NaCl and 3 mM MgCl2. 20% Glycerol was added to purified GST-HDAC1 protein before storage at −80° C.
The assay has been carried out in 96 well format and the BIOMOL fluorescent-based HDAC activity assay has been applied. […] Flur de lys Developer was added and the reaction was incubated for 10 min. Briefly, deacetylation of the substrate sensitizes it to the developer, which then generates a fluorophore. The fluorophore is excited with 360 nm light and the emitted light (460 nm) is detected on a fluorometric plate reader (Tecan Ultra Microplate detection system, Tecan Group Ltd.).
The analytical software, Prism 4.0 (GraphPad Software Inc) has been used to generate IC50 from a series of data.

T1 sequence (Q13547 whole entry): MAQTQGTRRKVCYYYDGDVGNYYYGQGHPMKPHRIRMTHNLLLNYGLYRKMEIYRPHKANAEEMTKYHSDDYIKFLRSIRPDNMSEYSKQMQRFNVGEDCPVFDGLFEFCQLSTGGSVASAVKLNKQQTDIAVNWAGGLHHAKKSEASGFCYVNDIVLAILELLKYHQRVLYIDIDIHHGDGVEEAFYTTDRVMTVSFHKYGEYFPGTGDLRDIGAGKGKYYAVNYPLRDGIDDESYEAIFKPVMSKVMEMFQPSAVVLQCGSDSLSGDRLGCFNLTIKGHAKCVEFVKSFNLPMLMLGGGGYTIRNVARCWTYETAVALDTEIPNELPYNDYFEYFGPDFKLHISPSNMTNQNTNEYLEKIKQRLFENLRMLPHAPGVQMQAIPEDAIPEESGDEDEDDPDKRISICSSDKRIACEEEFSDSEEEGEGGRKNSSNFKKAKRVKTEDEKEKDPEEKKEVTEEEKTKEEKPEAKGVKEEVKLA

Compound	GI50 (Colo205 cells)	IC50 (HDAC1 enzyme)
CCCCc1nc2cc(/C=C/C(=O)NO)ccc2n1CC(C)(C)CN(C)C [Compound 3, 3-[2-Butyl-1-(3-dimethylamino-2,2-dimethyl-propyl)-1H-benzoimidazol-5-yl]-N-hydroxy-acrylamide]	2220 nM	
CSCCc1nc2cc(/C=C/C(=O)NO)ccc2n1CC(C)(C)CN(C)C [Compound 4, 3-[1-(3-Dimethylamino-2,2-dimethyl-propyl)-2-(2-methylsulfanyl-ethyl)-1H-benzoimidazol-5-yl]-N-hydroxy-acrylamide]	2620 nM	120 nM
CCOCc1nc2cc(/C=C/C(=O)NO)ccc2n1CC(C)(C)CN(C)C [Compound 5, 3-[1-(3-Dimethylamino-2,2-dimethyl-propyl)-2-ethoxymethyl-1H-benzoimidazol-5-yl]-N-hydroxy-acrylamide]	2580 nM	170 nM
CC(C)Cc1nc2cc(/C=C/C(=O)NO)ccc2n1CC(C)(C)CN(C)C [Compound 6, 3-[1-(3-Dimethylamino-2,2-dimethyl-propyl)-2-isobutyl-1H-benzoimidazol-5-yl]-N-hydroxy-acrylamide]	2690 nM	180 nM
C#CCCc1nc2cc(/C=C/C(=O)NO)ccc2n1CC(C)(C)CN(C)C [Compound 9, 3-[2-But-3-ynyl-1-(3-dimethylamino-2,2-dimethyl-propyl)-1H-benzoimidazol-5-yl]-N-hydroxy-acrylamide]	1870 nM	210 nM
C=CCCc1nc2cc(/C=C/C(=O)NO)ccc2n1CC(C)(C)CN(C)C [Compound 10, 3-[2-But-3-enyl-1-(3-dimethylamino-2,2-dimethyl-propyl)-1H-benzoimidazol-5-yl]-N-hydroxy-acrylamide]	1770 nM	140 nM
CN(C)CC(C)(C)Cn1c(CCC(F)(F)F)nc2cc(/C=C/C(=O)NO)ccc21 [Compound 13, 3-[1-(3-Dimethylamino-2,2-dimethyl-propyl)-2-(3,3,3-trifluoro-propyl)-1H-benzoimidazol-5-yl]-N-hydroxy-acrylamide]	5500 nM	420 nM
CCOCc1nc2cc(/C=C/C(=O)NO)ccc2n1CCN(CC)CC [Compound 15, 3-[1-(2-Diethylamino-ethyl)-2-ethoxymethyl-1H-benzoimidazol-5-yl]-N-hydroxy-acrylamide]	1500 nM	85 nM
CCN(CC)CCn1c(CC(C)(C)C)nc2cc(/C=C/C(=O)NO)ccc21 [Compound 17, 3-[1-(2-Diethylamino-ethyl)-2-(2,2-dimethyl-propyl)-1H-benzoimidazol-5-yl]-N-hydroxy-acrylamide]	1190 nM	130 nM
CC(C)N(CCn1c(CC(C)(C)C)nc2cc(/C=C/C(=O)NO)ccc21)C(C)C [Compound 20, 3-[1-(2-Diisopropylamino-ethyl)-2-(2,2-dimethyl-propyl)-1H-benzoimidazol-5-yl]-N-hydroxy-acrylamide]	2660 nM	260 nM
CC(C)Cc1nc2cc(/C=C/C(=O)NO)ccc2n1CCN(C(C)C)C(C)C [Compound 21, 3-[1-(2-Diisopropylamino-ethyl)-2-isobutyl-1H-benzoimidazol-5-yl]-N-hydroxy-acrylamide]	2510 nM	380 nM
CN(C)CC(C)(C)Cn1c(C2CCCCC2)nc2cc(/C=C/C(=O)NO)ccc21 [Compound 24, 3-[2-Cyclohexyl-1-(3-dimethylamino-2,2-dimethyl-propyl)-1H-benzoimidazol-5-yl]-N-hydroxy-acrylamide]	2990 nM	510 nM
CN(C)CC(C)(C)Cn1c(C2CC3C=CC2C3)nc2cc(/C=C/C(=O)NO)ccc21 (stereo not drawn) [Compound 25, 3-[2-Bicyclo[2.2.1]hept-5-en-2-yl-1-(3-dimethylamino-2,2-dimethyl-propyl)-1H-benzoimidazol-5-yl]-N-hydroxy-acrylamide]	2380 nM	230 nM
CC/C=C\CCc1nc2cc(/C=C/C(=O)NO)ccc2n1CCN(CC)CC [Compound 26, 3-[1-(2-Diethylamino-ethyl)-2-hex-3-enyl-1H-benzoimidazol-5-yl]-N-hydroxy-acrylamide]	370 nM	40 nM
CC/C=C\CCc1nc2cc(/C=C/C(=O)NO)ccc2n1CCN(C(C)C)C(C)C [Compound 27, 3-[1-(2-Diisopropylamino-ethyl)-2-hex-3-enyl-1H-benzoimidazol-5-yl]-N-hydroxy-acrylamide]	1420 nM	230 nM
CC/C=C\CCc1nc2cc(/C=C/C(=O)NO)ccc2n1CCNC(C)C [Compound 28, 3-[2-Hex-3-enyl-1-(2-isopropylamino-ethyl)-1H-benzoimidazol-5-yl]-N-hydroxy-acrylamide]	180 nM	21 nM
CC/C=C\CCc1nc2cc(/C=C/C(=O)NO)ccc2n1CCCNC(C)C [Compound 29, 3-[2-Hex-3-enyl-1-(3-isopropylamino-propyl)-1H-benzoimidazol-5-yl]-N-hydroxy-acrylamide]	1920 nM	130 nM
CCCCCCc1nc2cc(/C=C/C(=O)NO)ccc2n1CCN(CC)CC [Compound 31, 3-[1-(2-Diethylamino-ethyl)-2-hexyl-1H-benzoimidazol-5-yl]-N-hydroxy-acrylamide]	420 nM	
CC(Cc1nc2cc(/C=C/C(=O)NO)ccc2n1CCCNC(C)C)CC(C)(C)C (stereo not drawn) [Compound 32, N-Hydroxy-3-[1-(3-isopropylamino-propyl)-2-(2,4,4-trimethyl-pentyl)-1H-benzoimidazol-5-yl]-acrylamide]	740 nM	60 nM
CC(C)NCCCn1c(CC(C)(C)C)nc2cc(/C=C/C(=O)NO)ccc21 [Compound 33, 3-[2-(2,2-Dimethyl-propyl)-1-(3-isopropylamino-propyl)-1H-benzoimidazol-5-yl]-N-hydroxy-acrylamide]	2110 nM	230 nM
CC(C)N(CCn1c(CCC(F)(F)F)nc2cc(/C=C/C(=O)NO)ccc21)C(C)C [Compound 34, 3-[1-(2-Diisopropylamino-ethyl)-2-(3,3,3-trifluoro-propyl)-1H-benzoimidazol-5-yl]-N-hydroxy-acrylamide]	4400 nM	880 nM
CCNCCn1c(CC(C)(C)C)nc2cc(/C=C/C(=O)NO)ccc21 [Compound 36]	860 nM	96 nM
CCNCCn1c(CC(C)C)nc2cc(/C=C/C(=O)NO)ccc21 [Compound 37, 3-[1-(2-Ethylamino-ethyl)-2-isobutyl-1H-benzoimidazol-5-yl]-N-hydroxy-acrylamide]	1090 nM	91 nM
CC(Cc1nc2cc(/C=C/C(=O)NO)ccc2n1CCN(C(C)C)C(C)C)CC(C)(C)C (stereo not drawn) [Compound 38, 3-[1-(2-Diisopropylamino-ethyl)-2-(2,4,4-trimethyl-pentyl)-1H-benzoimidazol-5-yl]-N-hydroxy-acrylamide]	1940 nM	560 nM
CCCCc1nc2cc(/C=C/C(=O)NO)ccc2n1CCN(C)C [Compound 57, 3-[2-Butyl-1-(2-dimethylamino-ethyl)-1H-benzoimidazol-5-yl]-N-hydroxy-acrylamide]	650 nM	
O=C(/C=C/c1ccc2c(c1)ncn2C1CCN(CCCc2ccccc2)C1)NO (stereo not drawn) [Compound 98, (E)-N-hydroxy-3-(1-(1-(3-phenylpropyl)pyrrolidin-3-yl)-1H-benzo[d]imidazol-5-yl)acrylamide]		320 nM
